Columns and labels:
HT-29 [1] = experiment: Cell cycle arrest in human HT-29 cells assessed as accumulation at sub-G1 phase at 2.5 uM after 48 hrs by flow cytometry; type: functional
HT-29 [2] = experiment: Cell cycle arrest in human HT-29 cells assessed as accumulation at sub-G1 phase at 0.1 uM after 24 hrs by flow cytometry; type: functional
HT-29 [3] = experiment: Antiproliferative activity against human HT-29 cells after 3 days by MTT assay; type: functional, cell-based; conditions: HT-29, 72 h
HeLa = experiment: Antiproliferative activity against human HeLa cells after 3 days by MTT assay; type: functional, cell-based; conditions: 72 h
HT-29 [4] = experiment: Cell cycle arrest in human HT-29 cells assessed as accumulation at sub-G1 phase at 1 uM after 24 hrs by flow cytometry; type: functional
HT-29 [5] = experiment: Cell cycle arrest in human HT-29 cells assessed as accumulation at sub-G1 phase at 0.1 uM after 48 hrs by flow cytometry; type: functional
HT-29 [6] = experiment: Cell cycle arrest in human HT-29 cells assessed as accumulation at sub-G1 phase at 0.5 uM after 24 hrs by flow cytometry; type: functional
HT-29 [7] = experiment: Cell cycle arrest in human HT-29 cells assessed as accumulation at sub-G1 phase at 0.25 uM after 48 hrs by flow cytometry; type: functional
HT-29 [8] = experiment: Cell cycle arrest in human HT-29 cells assessed as accumulation at sub-G1 phase at 0.25 uM after 24 hrs by flow cytometry; type: functional
HT-29 [9] = experiment: Cell cycle arrest in human HT-29 cells assessed as accumulation at sub-G1 phase at 1 uM after 48 hrs by flow cytometry; type: functional
HT-29 [10] = experiment: Cell cycle arrest in human HT-29 cells assessed as accumulation at sub-G1 phase at 0.05 uM after 24 hrs by flow cytometry; type: functional
HT-29 [11] = experiment: Cell cycle arrest in human HT-29 cells assessed as accumulation at sub-G1 phase at 2.5 uM after 24 hrs by flow cytometry; type: functional
A549 = experiment: Antiproliferative activity against human A549 cells after 3 days by MTT assay; type: functional, cell-based; conditions: A549, 72 h
HT-29 [12] = experiment: Cell cycle arrest in human HT-29 cells assessed as accumulation at sub-G1 phase at 0.05 uM after 48 hrs by flow cytometry; type: functional
HT-29 [13] = experiment: Cell cycle arrest in human HT-29 cells assessed as accumulation at sub-G1 phase at 0.5 uM after 48 hrs by flow cytometry; type: functional

Row | SMILES | Activity (HT-29 [1]) | Activity (HT-29 [2]) | IC50 (HT-29 [3]) | IC50 (HeLa) | Activity (HT-29 [4]) | Activity (HT-29 [5]) | Activity (HT-29 [6]) | Activity (HT-29 [7]) | Activity (HT-29 [8]) | Activity (HT-29 [9]) | Activity (HT-29 [10]) | Activity (HT-29 [11]) | IC50 (A549) | Activity (HT-29 [12]) | Activity (HT-29 [13])
1 | Nc1ccc2cc3ccc(I)cc3nc2c1CO | 12% | 1.4% | 70 nM | 70 nM | 8.7% | 22.6% | 1.7% | 23.7% | 6.3% | 14.8% | 3.9% | 8.9% | 130 nM | 2.14% | 19.3%
2 | Nc1ccc2cc3ccccc3nc2c1CO | 23.4% | 0.1% | 34 nM | 70 nM | 5.2% | 4.7% | 9.7% | 18.7% | 0.7% | 31.7% | 3.2% | 13.7% | 60 nM | 0.7% | 26.3%

Source: ChEMBL document CHEMBL1153811, “Unusual cellular uptake of cytotoxic 4-hydroxymethyl-3-aminoacridine” (Eur J Med Chem, 2009)
